Assay results taken from the CheMixHub ionic liquid set.

Test: xn = mol fraction of the nth substance listed

CCCCCC[n+]1ccn(C)c1.F[B-](F)(F)F + CCCCCO
101.33 kPa, x2 = 0.865
Settings | viscosity [mPa·s]
315 K | 5.31
315.35 K | 4.93
315.39 K | 4.9
315.5 K | 4.85
315.63 K | 4.78
315.79 K | 4.73
315.84 K | 4.71
315.86 K | 4.71
318.02 K | 4.19

CCCCCC[n+]1ccn(C)c1.F[B-](F)(F)F + NC(N)=O + O
298.15 K, 100 kPa
Settings | viscosity [mPa·s]
x2 = 0, x1 = 0.0153 | 2.79
x2 = 0.008814, x3 = 0.9759 | 2.96
x2 = 0.01758, x3 = 0.9671 | 2.88
x2 = 0.02591, x3 = 0.9588 | 2.91
x2 = 0.03448, x3 = 0.9502 | 2.92
x2 = 0.04235, x3 = 0.9424 | 2.94

NCCCNCCCN + CC(=O)[O-].CCCC[n+]1ccn(C)c1 + O
viscosity [mPa·s], 101 kPa
Settings | 298.15 K | 303.15 K | 308.15 K | 313.15 K | 318.15 K | 323.15 K | 328.15 K | 333.15 K
x2 = 0.03479, x1 = 0.0177 | 3.36 | 3.32 | 3.14 | 2.86 | 2.61 | 2.28 | 1.96 | 1.77
x2 = 0.03897, x1 = 0.01333 | 3.54 | 3.51 | 3.28 | 2.95 | 2.66 | 2.52 | 2.34 | 2.15
x2 = 0.04311, x1 = 0.00893 | 3.88 | 3.76 | 3.32 | 2.96 | 2.74 | 2.62 | 2.37 | 2.24

CC(=O)[O-].CCCC[N+](CCCC)(CCCC)CCCC + CC(=O)O + O
303.15 K, 100 kPa
Settings | viscosity [mPa·s]
x2 = 0, x3 = 0.0263 | 680
x2 = 0.0971, x3 = 0.0291 | 460
x2 = 0.194, x3 = 0.0301 | 297
x2 = 0.3213, x3 = 0.0263 | 169
x2 = 0.4883, x3 = 0.0234 | 83
x2 = 0.6588, x3 = 0.0167 | 41
x2 = 0.7897, x3 = 0.0128 | 25
x2 = 0.8911, x3 = 0.0099 | 19

CC(C)C[C@H](N)C(=O)O + CCCCCCCCCCCC[N+](C)(C)Cc1ccccc1.[Cl-] + O
101 kPa, x1 = 0.00893, x2 = 0
Settings | electrical conductivity [S/m]
293.15 K | 0.00107
298.15 K | 0.00125
303.15 K | 0.00136
308.15 K | 0.00152
313.15 K | 0.00168

O=C1OCCO1 + CC[n+]1ccn(C)c1.O=S(=O)([N-]S(=O)(=O)C(F)(F)F)C(F)(F)F
100 kPa
Settings | electrical conductivity [S/m] | viscosity [mPa·s]
293.15 K, x1 = 0.8163 | – | 5
293.15 K, x1 = 0.98 | 0.62 | –
303.15 K, x1 = 0.5263 | – | 11.5
303.15 K, x1 = 0.7476 | – | 6.1
313.15 K, x1 = 0.95 | 1.42 | –
333.15 K, x1 = 0.8163 | – | 2.4
333.15 K, x1 = 0.95 | 1.84 | –
343.15 K, x1 = 0.5263 | – | 4.6
343.15 K, x1 = 1 | – | 1.16
353.15 K, x1 = 0.66 | 4.47 | –
353.15 K, x1 = 0.82 | 4.06 | –
353.15 K, x1 = 0.9467 | – | 1.33
353.15 K, x1 = 0.98 | 1.37 | –
363.15 K, x1 = 0.8163 | – | 1.56
373.15 K, x1 = 0.5263 | – | 3
373.15 K, x1 = 1 | – | 0.85
383.15 K, x1 = 0.7476 | – | 1.63
393.15 K, x1 = 0.7476 | – | 1.49
393.15 K, x1 = 0.9467 | – | 0.91

CCCCn1cc[nH+]c1.O=S(=O)([N-]S(=O)(=O)C(F)(F)F)C(F)(F)F + N
313.2 K, 101 kPa
Settings | viscosity [mPa·s]
x1 = 0.2924 | 9.9
x1 = 0.337 | 12.9
x1 = 0.4007 | 19.3
x1 = 0.4495 | 24.3
x1 = 0.477 | 27.7
x1 = 0.4904 | 29.1
x1 = 0.575 | 38.7
x1 = 0.6515 | 45.8
x1 = 0.7028 | 51.3
x1 = 0.7906 | 54.5
x1 = 0.8999 | 52.5
x1 = 1 | 47.2

O=[N+]([O-])[O-].[Li+] + CC[n+]1ccn(C)c1.O=S(=O)([O-])C(F)(F)F
electrical conductivity [S/m], 101 kPa
Settings | x2 = 0.8748 | x2 = 0.9165 | x2 = 0.9576 | x2 = 0.9746
288.15 K | 0.38 | 0.454 | 0.563 | 0.562
298.15 K | 0.587 | 0.68 | 0.818 | 0.816
333.15 K | 1.69 | 1.85 | 2.07 | 2.1

CCCCCC[n+]1ccn(C)c1.F[B-](F)(F)F + CCCC[n+]1ccn(C)c1.F[B-](F)(F)F
101 kPa
Settings | viscosity [mPa·s]
298.15 K, x2 = 0.103 | 195.1
298.15 K, x2 = 0.8917 | 115.3
299.15 K, x2 = 0.103 | 184.2
299.15 K, x2 = 0.809 | 115.7
301.15 K, x2 = 0.809 | 104.4
301.15 K, x2 = 0.8917 | 98.6
302.15 K, x2 = 0.3602 | 132.9
302.15 K, x2 = 0.555 | 115.9
302.15 K, x2 = 0.8917 | 93.9
303.15 K, x2 = 0.3602 | 126.2
303.15 K, x2 = 0.555 | 110
303.15 K, x2 = 0.809 | 94.5
303.15 K, x2 = 0.8917 | 89.3
304.15 K, x2 = 0.103 | 139.2
304.15 K, x2 = 0.5047 | 110
305.15 K, x2 = 0.3602 | 113.5
305.15 K, x2 = 0.4383 | 107.7
305.15 K, x2 = 0.598 | 98.5
305.15 K, x2 = 0.809 | 85.6
307.15 K, x2 = 0.054 | 123.9
308.15 K, x2 = 0.103 | 113
308.15 K, x2 = 0.3602 | 97.3
308.15 K, x2 = 0.4383 | 92.8

CCCCCC[n+]1ccn(C)c1.F[B-](F)(F)F + CC(C)O + CCCO
viscosity [mPa·s], 101 kPa
Settings | 293.15 K | 303.15 K | 313.15 K
x2 = 0.0547, x3 = 0.092 | 153.8 | 92 | –
x2 = 0.0978, x3 = 0.4041 | 31.47 | 21.38 | 15.28
x2 = 0.1003, x3 = 0.7991 | 4.92 | 3.33 | 2.35
x2 = 0.1006, x3 = 0.6013 | 13.2 | 9.16 | 6.69
x2 = 0.1012, x3 = 0.4996 | 20.14 | 13.93 | 10.1
x2 = 0.1014, x3 = 0.7009 | 8.3 | 5.74 | 4.16
x2 = 0.1116, x3 = 0.2875 | 49.62 | 32.6 | 22.59
x2 = 0.1293, x3 = 0.1504 | 85.1 | 53.44 | –
x2 = 0.1973, x3 = 0.1121 | 75.21 | 48.39 | 32.33
x2 = 0.1985, x3 = 0.4006 | 20.51 | 14.2 | 10.17
x2 = 0.1992, x3 = 0.3012 | 32.59 | 21.43 | 15.29
x2 = 0.2003, x3 = 0.2005 | 49.41 | 32.39 | 22.5
x2 = 0.2003, x3 = 0.4992 | 13.3 | 9.31 | 6.79
x2 = 0.2012, x3 = 0.6984 | 5 | 3.35 | 2.37
x2 = 0.2977, x3 = 0.1042 | 50.06 | 32.73 | 22.7
x2 = 0.2999, x3 = 0.4989 | 8.8 | 6.05 | 4.35
x2 = 0.3037, x3 = 0.4006 | 13.28 | 9.19 | 6.68
x2 = 0.3046, x3 = 0.5961 | 5.05 | 3.39 | 2.36
x2 = 0.3058, x3 = 0.3005 | 20.27 | 13.93 | 10.1
x2 = 0.3977, x3 = 0.2999 | 13.8 | 9.55 | 6.92
x2 = 0.3985, x3 = 0.104 | 31.6 | 21.33 | 15.15
x2 = 0.3987, x3 = 0.3005 | 13.61 | 9.43 | 6.88
x2 = 0.3989, x3 = 0.3998 | 8.77 | 6.02 | 4.33
x2 = 0.3989, x3 = 0.5015 | 5.18 | 3.4 | 2.38
x2 = 0.4002, x3 = 0.1968 | 21.12 | 14.53 | 10.38
x2 = 0.4992, x3 = 0.4006 | 5.21 | 3.47 | 2.4
x2 = 0.5004, x3 = 0.0998 | 20.98 | 14.38 | 10.33
x2 = 0.5013, x3 = 0.3019 | 8.68 | 5.91 | 4.23
x2 = 0.5734, x3 = 0.2335 | 8.61 | 5.85 | 4.17
x2 = 0.6, x3 = 0.0992 | 13.73 | 9.47 | 6.84
x2 = 0.6001, x3 = 0.3004 | 5.39 | 3.43 | 2.38
x2 = 0.6942, x3 = 0.1049 | 8.82 | 5.98 | 4.27
x2 = 0.698, x3 = 0.2007 | 5.44 | 3.54 | 2.45
x2 = 0.7991, x3 = 0.101 | 5.41 | 3.47 | 2.37
